Laboratory results from US8097635B2, “Insulin resistance improving agent” (Kyowa Hakko Bio Co., Ltd., priority 2006, dated 2012).

Tests used:
Format in all cases: in vivo
[1] = system: BKS. Cg-+Lepr^db/+Lepr^db/JcI mice (type II diabetes model mice); experiment: Fasting blood serum glucose level on day 32, Test Example 1; details: for Blood glucose level: fasting, day 32 after initiation of test, 10 mL/kg orally once a day; for Fasting blood glucose levels compared with group 1 (0.5% MC): day 32
Text: (§1) Twenty seven (27) BKS. Cg-+Lepr^db/+Lepr^db/JcI mice (Clea Japan Inc., female, 7 week old), which were type II diabetes model mice expressing the symptoms of hyperinsulinemia due to insulin resistance, were divided into 3 groups each consisting of 9 mice. The groups were designated as group 1, group 2, and group 3. Mice of the groups 1 to 3 were fed with free access to pellets CE-2 (Clea Japan Inc.; hereinafter referred to as “CE-2”) for feeding mice and rats. To the mice of group 1, 0.5 w/v % methyl cellulose (0.5 w/v % methyl cellulose 400 cP solution, sterilized, produced by Wako Pure Chemical Industries, Ltd. for biochemistry; hereinafter referred to as “0.5% MC”) was administered orally once a day (10 mL/kg). To the mice of group 2, a pyrroloquinoline quinone disodium salt (hereinafter referred to as “PQQ disodium salt,” produced by Mitsubishi Gas Chemical Company, Inc.) suspended in 0.5% MC to a concentration of 0.5 mg/mL was administered orally once a day (10 mL/kg). To the mice of group 3, a PQQ disodium salt suspended in 0.5% MC to a concentration of 2 mg/mL was administered orally once a day (10 mL/kg). Blood was collected from the orbital veins on day 14 and day 28 after the initiation of the test, and thus serum was obtained. Nonfasting blood serum glucose levels and nonfasting serum insulin concentrations were separately measured using a glucose C-II Test Wako (produced by Wako Pure Chemical Industries, Ltd.) and a Mouse Insulin ELISA Kit (S-type) (produced by Shibayagi Co., Ltd.), respectively. After 18 hours of fasting from day 28 to day 29 after the initiation of the test, a 40% (w/v) glucose aqueous solution was administered orally to each mouse at 2 g/kg B.W., so as to load the mice with glucose (to test the glucose tolerance). Blood was collected from tail veins at the time of administration of a glucose aqueous solution (0 minute) and then at a certain time point after administration (120 minutes). Blood glucose levels were measured using a Medisafe Reader GR-101 (produced by Terumo Corporation). […] Blood serum glucose levels and serum insulin concentrations were separately measured using a glucose C-II Test Wako and a Mouse Insulin ELISA Kit (S-type), respectively. The results were expressed as average levels±standard deviation (n=9). Statistical significance levels (p-values) were found by a t-test (group 1 with respect to group 2; and group 1 with respect to group 3).

[2] = system: BKS. Cg-+Lepr^db/+Lepr^db/JcI mice (type II diabetes model mice); experiment: Fasting serum insulin concentration on day 32, Test Example 1; details: for Insulin concentration: day 32 after initiation of test, 10 mL/kg orally once a day
Text: Twenty seven (27) BKS. Cg-+Lepr^db/+Lepr^db/JcI mice (Clea Japan Inc., female, 7 week old), which were type II diabetes model mice expressing the symptoms of hyperinsulinemia due to insulin resistance, were divided into 3 groups each consisting of 9 mice. The groups were designated as group 1, group 2, and group 3. Mice of the groups 1 to 3 were fed with free access to pellets CE-2 (Clea Japan Inc.; hereinafter referred to as “CE-2”) for feeding mice and rats. To the mice of group 1, 0.5 w/v % methyl cellulose (0.5 w/v % methyl cellulose 400 cP solution, sterilized, produced by Wako Pure Chemical Industries, Ltd. for biochemistry; hereinafter referred to as “0.5% MC”) was administered orally once a day (10 mL/kg). To the mice of group 2, a pyrroloquinoline quinone disodium salt (hereinafter referred to as “PQQ disodium salt,” produced by Mitsubishi Gas Chemical Company, Inc.) suspended in 0.5% MC to a concentration of 0.5 mg/mL was administered orally once a day (10 mL/kg). To the mice of group 3, a PQQ disodium salt suspended in 0.5% MC to a concentration of 2 mg/mL was administered orally once a day (10 mL/kg). Blood was collected from the orbital veins on day 14 and day 28 after the initiation of the test, and thus serum was obtained. Nonfasting blood serum glucose levels and nonfasting serum insulin concentrations were separately measured using a glucose C-II Test Wako (produced by Wako Pure Chemical Industries, Ltd.) and a Mouse Insulin ELISA Kit (S-type) (produced by Shibayagi Co., Ltd.), respectively. […] Blood glucose levels were measured using a Medisafe Reader GR-101 (produced by Terumo Corporation). […] Blood serum glucose levels and serum insulin concentrations were separately measured using a glucose C-II Test Wako and a Mouse Insulin ELISA Kit (S-type), respectively. The results were expressed as average levels±standard deviation (n=9). […]

[3] = system: BKS. Cg-+Lepr^db/+Lepr^db/JcI mice (type II diabetes model mice); experiment: Glucose tolerance test, Test Example 1; details: for Blood glucose level: glucose tolerance test day 29, glucose 2 g/kg orally after 18 h fasting, 10 mL/kg orally once a day
Text: as §1

[4] = Body weight of type II diabetes model mice, Test Example 1; details: for Body weight: 10 mL/kg orally once a day
Text: Twenty seven (27) BKS. Cg-+Lepr^db/+Lepr^db/JcI mice (Clea Japan Inc., female, 7 week old), which were type II diabetes model mice expressing the symptoms of hyperinsulinemia due to insulin resistance, were divided into 3 groups each consisting of 9 mice. The groups were designated as group 1, group 2, and group 3.
Mice of the groups 1 to 3 were fed with free access to pellets CE-2 (Clea Japan Inc.; hereinafter referred to as “CE-2”) for feeding mice and rats. To the mice of group 1, 0.5 w/v % methyl cellulose (0.5 w/v % methyl cellulose 400 cP solution, sterilized, produced by Wako Pure Chemical Industries, Ltd. for biochemistry; hereinafter referred to as “0.5% MC”) was administered orally once a day (10 mL/kg). To the mice of group 2, a pyrroloquinoline quinone disodium salt (hereinafter referred to as “PQQ disodium salt,” produced by Mitsubishi Gas Chemical Company, Inc.) suspended in 0.5% MC to a concentration of 0.5 mg/mL was administered orally once a day (10 mL/kg). To the mice of group 3, a PQQ disodium salt suspended in 0.5% MC to a concentration of 2 mg/mL was administered orally once a day (10 mL/kg).

[5] = system: BKS. Cg-+Lepr^db/+Lepr^db/JcI mice (type II diabetes model mice); experiment: Nonfasting blood serum glucose level, Test Example 1; details: for Blood glucose level: non-fasting, 10 mL/kg orally once a day
Text: as §1

[6] = system: type II diabetes model KK-AY/Ta JcI mice; experiment: Glucose tolerance test, Test Example 2; details: for Blood glucose level: glucose tolerance test day 15, glucose 1 g/kg orally after 18 h fasting, 10 mL/kg orally once a day; for Blood glucose levels in glucose tolerance test compared with group 1 (0.5% MC): 30, 60 and 120 minutes after glucose
Experimental: Eighteen type II diabetes model KK-AY/Ta JcI mice (Clea Japan Inc., male, 6 week old) were divided into 3 groups (6 mice in group 1, 7 mice in group 2, and 5 mice in group 3). The groups were designated as group 1, group 2, and group 3, respectively. Mice of the groups 1 to 3 were fed with free access to pellets CE-2 for feeding mice and rats. To the mice of group 1, 0.5% MC was administered orally once a day (10 mL/kg). To the mice of group 2, a PQQ disodium salt suspended in 0.5% MC to a concentration of 0.5 mg/mL was administered orally once a day (10 mL/kg). To the mice of group 3, a PQQ disodium salt suspended in 0.5% MC to a concentration of 2 mg/mL was administered orally once a day (10 mL/kg). After 18 hours of fasting from day 14 to day 15 after the initiation of the test, a 10% (w/v) glucose aqueous solution was administered orally to each mouse at 1 g/kg B.W., so as to load the mice with glucose to test the glucose tolerance. Blood was collected from tail veins at 0 minutes, 30 minutes, 60 minutes, and 120 minutes after administration of the glucose aqueous solution. Blood glucose levels were measured using a Medisafe Reader GR-101 (produced by Terumo Corporation). […] Blood glucose levels were expressed as average levels±standard deviation (n=5-7) and statistical significance levels (p-values) were found by a t-test (group 1 with respect to group 2; and group 1 with respect to group 3).

[7] = system: BKS. Cg-+Lepr^db/+Lepr^db/JcI mice (type II diabetes model mice); experiment: Nonfasting serum insulin concentration, Test Example 1; details: for Serum insulin concentration: non-fasting, 10 mL/kg orally once a day
Text: as §1

[8] = system: BKS. Cg-+Lepr^db/+Lepr^db/JcI mice (type II diabetes model mice); experiment: Test Example 1 overall conclusion (insulin resistance, type II diabetes, body weight); details: Test Example 1, oral once a day for about 32 days
Text: Twenty seven (27) BKS. Cg-+Lepr^db/+Lepr^db/JcI mice (Clea Japan Inc., female, 7 week old), which were type II diabetes model mice expressing the symptoms of hyperinsulinemia due to insulin resistance, were divided into 3 groups each consisting of 9 mice. The groups were designated as group 1, group 2, and group 3. Mice of the groups 1 to 3 were fed with free access to pellets CE-2 (Clea Japan Inc.; hereinafter referred to as “CE-2”) for feeding mice and rats. To the mice of group 1, 0.5 w/v % methyl cellulose (0.5 w/v % methyl cellulose 400 cP solution, sterilized, produced by Wako Pure Chemical Industries, Ltd. for biochemistry; hereinafter referred to as “0.5% MC”) was administered orally once a day (10 mL/kg). […] Nonfasting blood serum glucose levels and nonfasting serum insulin concentrations were separately measured using a glucose C-II Test Wako (produced by Wako Pure Chemical Industries, Ltd.) and a Mouse Insulin ELISA Kit (S-type) (produced by Shibayagi Co., Ltd.), respectively. […] Blood glucose levels were measured using a Medisafe Reader GR-101 (produced by Terumo Corporation). […] Blood serum glucose levels and serum insulin concentrations were separately measured using a glucose C-II Test Wako and a Mouse Insulin ELISA Kit (S-type), respectively. The results were expressed as average levels±standard deviation (n=9). […]

[9] = group 2 (0.5 mg/mL, 10 mL/kg orally once a day)
[10] = group 3 (2 mg/mL, 10 mL/kg orally once a day)
[11] = group 2: 0.5 mg/mL, day 14 after initiation of test
[12] = group 2: 0.5 mg/mL, day 28 after initiation of test
[13] = group 3: 2 mg/mL, day 14 after initiation of test
[14] = group 3: 2 mg/mL, day 28 after initiation of test

O=C(O)c1cc(C(=O)O)c2c(n1)C(=O)C(=O)c1cc(C(=O)O)[nH]c1-2.[Na].[Na] [PQQ disodium salt, pyrroloquinoline quinone disodium salt]
Blood glucose level ([1]; group 2: 0.5 mg/mL): 617.7 ± 39.1 mg/dL | Blood glucose level ([1]; group 3: 2 mg/mL, *p < 0.05 with respect to group 1): 575.6 ± 33.3* mg/dl | Fasting blood glucose levels compared with group 1 (0.5% MC) [1, 9]: lower than those of group 1 | Fasting blood glucose levels compared with group 1 (0.5% MC) [1, 10]: significantly lower than those of group 1 | Insulin concentration ([2]; group 2: 0.5 mg/mL): 4.88 ± 0.75 ng/mL | Insulin concentration ([2]; group 3: 2 mg/mL): 4.4 ± 0.66 ng/mL | Serum insulin concentrations compared with group 1 (0.5% MC) ([2]; groups 2 and 3 (0.5 and 2 mg/mL, 10 mL/kg orally once a day), day 32): lower than those of group 1 | Blood glucose level ([3]; group 2: 0.5 mg/mL, 0 minute): 281.3 ± 16.3 mg/dL | Blood glucose level ([3]; group 2: 0.5 mg/mL, 120 minutes): 522.0 ± 22.9 mg/dL | Blood glucose level ([3]; group 3: 2 mg/mL, 0 minute): 303.4 ± 25.9 mg/dL | Blood glucose level ([3]; group 3: 2 mg/mL, 120 minutes): 489.3 ± 47.5 mg/dL | Blood glucose levels in glucose tolerance test compared with group 1 (0.5% MC) ([3]; groups 2 and 3 (0.5 and 2 mg/mL, 10 mL/kg orally once a day), 120 minutes after glucose): lower than those of group 1 | Body weight ([4]; group 2: 0.5 mg/mL in 0.5% MC, day 0 (test initiated)): 29.90 ± 0.37 g | Body weight ([4]; group 2: 0.5 mg/mL in 0.5% MC, day 31): 37.18 ± 0.65 g | Body weight ([4]; group 3: 2 mg/mL in 0.5% MC, day 0 (test initiated)): 29.93 ± 0.51 g | Body weight ([4]; group 3: 2 mg/mL in 0.5% MC, day 31): 39.01 ± 1.07 g | Body weights compared with group 1 (0.5% MC) ([4]; groups 2 and 3 (0.5 and 2 mg/mL, 10 mL/kg orally once a day), after completion of the test): almost the same as those of group 1 | Non-fasting blood glucose levels compared with group 1 (0.5% MC) ([5]; groups 2 and 3 (0.5 and 2 mg/mL, 10 mL/kg orally once a day), day 14 and day 28): lower than those of group 1 | Blood glucose level [5, 11]: 427.7 ± 11.4 mg/dL | Blood glucose level [5, 12]: 531.5 ± 12.3 mg/dL | Blood glucose level [5, 13]: 405.7 ± 24.1 mg/dL | Blood glucose level [5, 14]: 546.1 ± 26.0 mg/dL | Overall effect on type II diabetes ([6]; Test Example 2, model mice with a gene mutation differing from test example 1): exerts a therapeutic effect on type II diabetes | Blood glucose level ([6]; group 2: 0.5 mg/mL, 0 minutes): 116.7 ± 10.1 mg/dL | Blood glucose level ([6]; group 2: 0.5 mg/mL, 30 minutes, ***p < 0.001 with respect to group 1): 274.9 ± 8.4*** mg/dl | Blood glucose level ([6]; group 2: 0.5 mg/mL, 60 minutes, *p < 0.05 with respect to group 1): 264.6 ± 7.6* mg/dl | Blood glucose level ([6]; group 2: 0.5 mg/mL, 120 minutes, **p < 0.01 with respect to group 1): 184.3 ± 7.8** mg/dl | Blood glucose level ([6]; group 3: 2 mg/mL, 0 minutes): 117.0 ± 12.2 mg/dL | Blood glucose level ([6]; group 3: 2 mg/mL, 30 minutes): 300.0 ± 24.1 mg/dL | Blood glucose level ([6]; group 3: 2 mg/mL, 60 minutes): 261.6 ± 25.6 mg/dL | Blood glucose level ([6]; group 3: 2 mg/mL, 120 minutes): 187.4 ± 20.3 mg/dL | Blood glucose levels in glucose tolerance test compared with group 1 (0.5% MC) [6, 9]: significantly lower than those of group 1 | Blood glucose levels in glucose tolerance test compared with group 1 (0.5% MC) [6, 10]: lower than those of group 1 | Serum insulin concentrations compared with group 1 (0.5% MC) ([7]; groups 2 and 3 (0.5 and 2 mg/mL, 10 mL/kg orally once a day), day 14 and 28): lower than those of group 1 | Serum insulin concentration [7, 11]: 4.02 ± 0.75 ng/mL | Serum insulin concentration [7, 12]: 3.02 ± 0.47 ng/mL | Serum insulin concentration [7, 13]: 6.23 ± 1.69 ng/mL | Serum insulin concentration [7, 14]: 4.82 ± 1.81 ng/mL | Overall effect on insulin resistance, type II diabetes and body weight [8]: exerts an effect of improving insulin resistance and a therapeutic effect on type II diabetes without body weight gain
